Target: T1, Core-binding factor subunit beta (Homo sapiens, UniProt Q13951)
T1 sequence (Q13951 whole entry): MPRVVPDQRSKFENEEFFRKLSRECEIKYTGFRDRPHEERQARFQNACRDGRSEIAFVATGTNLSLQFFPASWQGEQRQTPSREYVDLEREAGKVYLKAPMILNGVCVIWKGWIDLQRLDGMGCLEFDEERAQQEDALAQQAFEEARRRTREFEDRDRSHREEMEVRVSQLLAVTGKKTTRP
Experiment: Fluorescence Resonance Energy Transfer (FRET) Assay
Description: FRET assay can be used to effectively monitor the inhibition of CBF binding to the Runt domain of RUNX proteins (as well as for CBFβ-SMMHC binding to the Runt domain of RUNX proteins). For the assay, the green fluorescent protein derivative Cerulean is fused to the N-terminus of the Runt domain and the green fluorescent protein derivative Venus to the N-terminus of CBFβ.

Compound | IC50
COc1cc(OCCN2CCN(Cc3ccccc3)CC2)cnc1-c1nc2cc(OC(F)(F)F)ccc2[nH]1 [US10562890, Compound Al-14-100] | 2160 nM
FC(F)(F)Oc1ccc2[nH]c(-c3ccc(OCCN4CCN(Cc5ccccc5)CC4)cn3)nc2c1 [US10562890, Compound Al-14-95] | 2650 nM
